The values that follow come from patent US20190018003A1, “TUMOR DISCRIMINATION METHOD, DIAGNOSTIC AGENT FOR TUMOR, AND SENSITIZER FOR TUMOR DIAGNOSIS” (TOTO LTD., priority 2017, published 2019).

Experiment [1] concerns UM-UC-3 urinary bladder cancer cells. In words: Fluorescence enhancement in UM-UC-3 cells detected by optical spectral detector (635 nm). Type of experiment: cell-based, human. Conditions: Example 17, ALA 2 mmol/l, particles 0.001 w/v %, 405 nm excitation, 635 nm detection, immediately after light irradiation. An excerpt:
An aqueous ALA solution (50 mmol/l) was mixed into an E-MEM medium (ATCC-formulated Eagle's Minimum Essential Medium (ATCC)) to form a 2 mmol/l ALA solution. Further, aqueous solutions of light scattering particles (2) (ii) and 3 (ii) were mixed into an E-MEM medium to respectively form a light scattering particle solution having a concentration of 0.001 w/v %.
The medium of the UM-UC-3 cells on a 6-well plate, obtained in Example 3, was removed by an aspirator, and evaluation thereof was performed under the same conditions as in Example 5 and the solution was used for detection.
Detection was performed by using an optical spectral detector (USB 2000, a small sized fiber optical spectroscope, Ocean Optics) at room temperature in a dark place. […] Fluorescence generated therefrom was passed through a collimate lens disposed on the upper surface in a 50° direction, the collimate lens having a focal distance of 10.9 mm and a numerical aperture of 0.25 (F220SMA-A, Thorlabs) and, further, through an optical fiber (M59L01, Thorlabs) of φ=1 mm and a numerical aperture of 0.5, and was detected by the above optical spectral detector. […] And, by obtaining a difference in each measurement sample by subtracting the background intensity value from an intensity value of the measurement sample at a wavelength of 635 nm, the fluorescence detection intensity was calculated. […]

Experiment [2] shares this test system. In words: Fluorescence enhancement in UM-UC-3 cells by separate administration of fluorescent dye (ALA) and particles, fluorescence microscope. Type of experiment: cell-based, human. Conditions: Example 5, ALA 2 mmol/l, particles 0.001 w/v %, immediately after observation light irradiation. Here is the method:
UM-UC-3 cells (UMUC3, ATCC CRL-1749) were prepared. This cell line was subcultured in an E-MEM medium (ATCC-formulated Eagle's Minimum Essential Medium (ATCC), 10 v/v % FBS (Life Technologies)). The cultured cells which reached a logarithmic growth phase 3 days or 4 days later were peeled off with Trypsin/EDTA (Thermo Fisher Scientific) and, after the reaction was terminated in an E-MEM medium, centrifuged. The cell pellet obtained was suspended in an E-MEM medium. The cell suspension was subjected to measurement of cell density, inoculated onto a 6-well plate at a density of 3.6×10^4 cells/2 ml/well, and cultured for 3 days. […]
Evaluation was performed as follows. The medium of the UM-UC-3 cells on a 6-well plate, obtained in Example 3, was removed by an aspirator, and evaluation thereof was performed under conditions where PBS (−) and HBSS (−) in Example 4 were changed to the E-MEM medium and the MEM medium (no glutamine and no phenol red (Thermo Fisher Scientific), respectively, and the solution was used for detection of fluorescence.
Detection of fluorescence was performed in the same manner as in Example 4 by using an inverted fluorescence microscope (ECLIPSE Ti-E, Nikon). A fluorescence intensity was calculated by subtracting luminance corresponding to dark noise from the image acquired and thereafter obtaining average luminance of all pixels where fluorescence was acquired. […]

Molecules are shown by their SMILES.

On to `NCC(=O)CCC(=O)O` [fluorescent dye, 5-aminolevulinic acid], for which the “Relative detected fluorescence intensity” value in experiment [1] stood at 1.0. The Relative fluorescence intensity in experiment [2] was found to be 1.0.
